We go through ten molecules from patent US20040186113A1, “Heterocyclic amines for the treatment of conditions associated with gsk-3” (priority 2001, published 2004).

The molecule `Nc1ncc(-c2ccc(F)c(F)c2)nc1C(=O)Nc1cccnc1` [Example 15, 3-Amino-6-(3,4-difluorophenyl)-N-pyridin-3-ylpyrazine-2-carboxamide] displayed a melting point of 232 to 234 °C. As to `Nc1ncc(-c2cccs2)nc1C(=O)Nc1cccnc1` [Example 6, 3-Amino-6-(2-thienyl)-N-pyridin-3-ylpyrazine-2-carboxamide], the melting point was in the range of 178 to 189 °C. In the case of `Nc1ncc(-c2ccc(F)cc2F)nc1C(=O)Nc1cccnc1` [Example 14, 3-Amino-6-(2,4-difluorophenyl)-N-pyridin-3-ylpyrazine-2-carboxamide] it was 232 to 234 °C; in that of `Nc1ncc(-c2cccc(Cl)c2Cl)nc1C(=O)Nc1cccnc1` [Example 12, 3-Amino-6-(2,3-dichlorophenyl)-N-pyridin-3-ylpyrazine-2-carboxamide], 239 to 241 °C; in that of `Cc1cc(-c2cnc(N)c(C(=O)Nc3cccnc3)n2)ccc1F` [Example 17, 3-Amino-6-[4-fluoro-3-methylphenyl]-N-pyridin-3-ylpyrazine-2-carboxamide], 186 to 189 °C. The molecule `Nc1ncc(-c2cccc(F)c2)nc1C(=O)Nc1cccnc1` [Example 19, 3-Amino-6-(3-fluorophenyl)-N-pyridin-3-ylpyrazine-2-carboxamide] registered a melting point of 234.5 to 238 °C. For the molecule `Nc1ncc(-c2ccccc2F)nc1C(=O)Nc1cccnc1` [Example 20, 3-Amino-6-(2-fluorophenyl)-N-pyridin-3-ylpyrazine-2-carboxamide], the melting point lay in the range of 221 to 225 °C. As to `Nc1ncc(-c2ccc(F)cc2)nc1C(=O)Nc1cccnc1` [Example 10, 3-Amino-6-(4-fluorophenyl)-N-pyridin-3-ylpyrazine-2-carboxamide], the melting point lay within 193 to 197 °C.

Take `Nc1ncc(-c2ccc(F)c(Cl)c2)nc1C(=O)Nc1cccnc1` [Example 16, 3-Amino-6-(3-chloro-4-fluorophenyl)-N-pyridin-3-ylpyrazine-2-carboxamide]: the melting point is 236 to 238.5 °C. As for `Cc1ccc(-c2cnc(N)c(C(=O)Nc3cccnc3)n2)cc1C` [Example 18, 3-Amino-6-(3,4-dimethylphenyl)-N-pyridin-3-ylpyrazine-2-carboxamide], the figure is 178 to 182 °C.
